Test results as given in patent US9181275B2, “Mercaptoamidine derivatives and methods of use” (AbbVie Inc., priority 2011, dated 2015).

Key:
[1] = target: native H3 receptors from rat cerebral cortices (Rattus norvegicus (Rat), UniProt Q9QYN8); assay: H3 receptor competition binding with [3H]-N-α-methylhistamine, rat cerebral cortex membranes; conditions: [3H]-N-α-methylhistamine competition binding
Method: Aliquots were frozen at −70° C. until needed.
Membrane preparations were incubated with [^3H]-N-α-methylhistamine (0.5-1.0 nM) in the presence or absence of increasing concentrations of ligands for H3 receptor competition binding. The binding incubations were conducted in a final volume of 0.5 mL TE buffer at 25° C. and were terminated after 30 minutes. Thioperamide (30 μM) was used to define non-specific binding. All binding reactions were terminated by filtration under vacuum onto polyethylenimine (0.3%) presoaked Unifilters (Perkin Elmer Life Sciences) or Whatman GF/B filters followed by three brief washes with 2 mL of ice-cold TE buffer. Bound radiolabel was determined by liquid scintillation counting. For all of the radioligand competition binding assays, IC50 values and Hill slopes were determined by Hill transformation of the data and pKi values were determined by the Cheng-Prusoff equation.

[2] = system: locomotor stimulation induced by amphetamine; conditions: animals; Clapham J., et al. 1994; cited from earlier work

native H3 receptors from rat cerebral cortices, sequence (Q9QYN8 whole entry): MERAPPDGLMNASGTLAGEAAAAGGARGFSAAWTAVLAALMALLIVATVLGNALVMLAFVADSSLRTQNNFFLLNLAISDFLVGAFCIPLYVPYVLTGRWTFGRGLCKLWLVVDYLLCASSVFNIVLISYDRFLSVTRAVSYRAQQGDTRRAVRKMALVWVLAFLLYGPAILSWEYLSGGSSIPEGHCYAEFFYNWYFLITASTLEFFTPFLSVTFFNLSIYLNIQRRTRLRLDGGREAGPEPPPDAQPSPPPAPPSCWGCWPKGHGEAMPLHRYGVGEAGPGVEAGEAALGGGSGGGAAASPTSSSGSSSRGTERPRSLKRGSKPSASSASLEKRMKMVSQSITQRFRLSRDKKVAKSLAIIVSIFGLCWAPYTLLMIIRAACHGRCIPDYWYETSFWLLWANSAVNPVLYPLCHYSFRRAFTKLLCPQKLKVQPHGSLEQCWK

SMILES	Ki [1]	rat cortex (pKi) [1]	effect on amphetamine-induced locomotor stimulation [2]
CC1=C(c2ccc(OCCCN3CCCCC3)cc2)SC2=NCc3ccccc3CN21 [Example 2, 3-methyl-2-[4-(3-piperidin-1-ylpropoxy)phenyl]-5,10-dihydro[1,3]thiazolo[3,2-b][2,4]benzodiazepine]	50 pM	10.3	–
CC1=C(c2ccc(OCCCN3CCC[C@H]3C)cc2)SC2=NCc3ccccc3CN21 [Example 3, 3-methyl-2-(4-{3-[(2R)-2-methylpyrrolidin-1-yl]propoxy}phenyl)-5,10-dihydro[1,3]thiazolo[3,2-b][2,4]benzodiazepine]	20 pM	10.7	–
CC1=C(c2ccc(OCCCN3CCOCC3)cc2)SC2=NCc3ccccc3CN21 [Example 4, 3-methyl-2-[4-(3-morpholin-4-ylpropoxy)phenyl]-5,10-dihydro[1,3]thiazolo[3,2-b][2,4]benzodiazepine]	324 pM	9.49	–
S=C(NC1CCCCC1)N1CCC(c2cnc[nH]2)CC1 [thioperamide]	–	–	suppresses the locomotor stimulation induced by amphetamine
